Data reported in patent US9133187B2, “Serine/threonine kinase inhibitors” (ARRAY BIOPHARMA INC., priority 2011, dated 2015).

Columns and labels:
[1] = target: human ERK-2 (Mitogen Activated Kinase 1) (Homo sapiens (Human), UniProt P28482); assay: ERK-2 Enzymatic Assay; assay type: biochemical; conditions: 5 nM ERK-2, 25 μM ATP, Omnia peptide S/T17; read-out: ERK Inhibition IC50
Experimental: Compounds were tested in an enzymatic assay using human ERK-2 (Mitogen Activated Kinase 1), recombinantly expressed as an n-terminal 6-His fusion protein in E. coli and corresponding to aa 8-360. The substrate used was the fluorescent Omnia peptide S/T17 (Invitrogen of Carlsbad, Calif.; Cat. KNZ1171C). Test compounds were diluted in DMSO in 3-fold serial dilutions at 100× final concentrations. […] The assay was run at ambient temperature in a white 384-well polypropylene plate (Nunc, Inc of Naperville, Ill.; Cat. 267462) collecting data every 50 seconds for approximately 30 minutes on an Envision plate reader (PerkinElmer, Inc. of Waltham, Mass.); Excitation 340 nm/Emission 495 nm. The data collected from each well was fit to a straight line and the resulting rates were used to calculate percent of control. Percent of control was plotted against compound concentration and IC50 values were determined using a four-parameter fit.

[2] = system: PMA-stimulated P90RSK(Ser380) phosphorylation in HepG2 cells; assay: Cellular P90RSK(Ser380) Phosphorylation Assay; assay type: cell-based; conditions: Homo sapiens, 1.5 h compound incubation, PMA stimulation, pP90RSK(Ser380) normalized to GAPDH, read-out: Cell Assay IC50
Experimental: Inhibition of PMA-stimulated P90RSK(Ser380) phosphorylation was determined by the following in vitro cellular mechanistic assay, which comprises incubating cells with a compound for 1.5 hours and quantifying fluorescent pP90RSK(Ser380) signal on fixed cells and normalizing to GAPDH signal.
Materials and Methods: HepG2 cells were obtained from ATCC and grown in DMEM supplemented with 10% fetal bovine serum. Cells were plated in 96-well plates at 35,000 cells/well and allowed to attach overnight at 37° C./5% CO2. Diluted compounds were then added at a final concentration of 0.5% DMSO. After 1.5 hour compound incubation, cells were stimulated with the addition of PMA (phorbol 12-myristate 13-acetate) at a final concentration of 100 ng/mL; the PMA stimulation was a 30-minute incubation at 37° C./5% CO2. After the 30-minute PMA stimulation, cells were washed with PBS and fixed in 3.7% formaldehyde in PBS at room temperature for 15-20 minutes. This was followed by another wash in PBS and then permeabilization in 100% MeOH at room temperature for 10-15 minutes. Following the permeabilization incubation, cells were washed in PBS/0.05% Tween-20, followed by a block in Odyssey blocking buffer (LI-COR Biosciences) for at least 1 hour. Antibodies to phosphorylated P90RSK(Ser380) (Cell Signaling #9335, rabbit monoclonal) and GAPDH (Fitzgerald 10R-G109a, mouse monoclonal) were added to the cells and incubated overnight at 4° C. pP90RSK(Ser380) antibody was used at a 1:250 dilution; GAPDH was used at a 1:10,000 dilution. After washing with PBS/0.05% Tween-20, the cells were incubated with fluorescently-labeled secondary antibodies (Anti-rabbit-Alexa Flour680, Invitrogen Cat#A21109; Anti-mouse-IRDye800CW, Rockland Inc. Cat#610-131-121) for 1 hour. Both secondary antibodies were used at a 1:1000 dilution. Cells were then washed and analyzed for fluorescence at both wavelengths using the Odyssey Infrared Imaging System (LI-COR Biosciences). Phosphorylated P90RSK(Ser380) signal was normalized to GAPDH signal. Representative date is in TABLE III (infra).

Sequence of human ERK-2 (Mitogen Activated Kinase 1) (P28482 8-360): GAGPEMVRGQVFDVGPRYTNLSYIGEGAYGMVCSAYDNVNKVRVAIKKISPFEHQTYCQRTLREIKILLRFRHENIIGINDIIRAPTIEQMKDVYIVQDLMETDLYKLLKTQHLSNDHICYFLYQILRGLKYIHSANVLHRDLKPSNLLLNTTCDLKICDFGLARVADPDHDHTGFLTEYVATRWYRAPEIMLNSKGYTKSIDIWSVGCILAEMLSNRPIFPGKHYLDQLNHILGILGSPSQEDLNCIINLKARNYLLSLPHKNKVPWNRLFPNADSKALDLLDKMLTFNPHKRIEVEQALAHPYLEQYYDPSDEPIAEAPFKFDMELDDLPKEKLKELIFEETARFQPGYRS

IC50 [1]	SMILES	IC50 [2]
2.3 nM	O=C(N[C@@H](c1ccc(Cl)c(F)c1)[C@@H]1CNCCO1)N1CCc2cnc(NC3CCOCC3)nc2C1 (mixture of isomers) [Compound I-144, N—((R)-(4-chloro-3-fluorophenyl)((R)-morpholin-2-yl)methyl)-2-(tetrahydro-2H-pyran-4-ylamino)-5,6-dihydropyrido[3,4-d]pyrimidine-7(8H)-carboxamide and N—((S)-(4-chloro-3-fluorophenyl)((S)-morpholin-2-yl)methyl)-2-(tetrahydro-2H-pyran-4-ylamino)-5,6-dihydropyrido[3,4-d]pyrimidine-7(8H)-carboxamide mixture]	91.3 nM
2.4 nM	O=C(NC(c1ccc(Cl)c(F)c1)c1nnco1)N1CCc2cnc(NC3CCOCC3)nc2C1 (stereo in doubt) [II-359, 2-(Tetrahydro-pyran-4-ylamino)-5,8-dihydro-6H-pyrido[3,4-d]pyrimidine-7-carboxylic acid [(R)-(4-chloro-3-fluoro-phenyl)-[1,3,4]oxadiazol-2-yl-methyl]-amide]	30 nM
3.8 nM	Cn1ccc(C(NC(=O)N2CCc3cnc(NC4CCOCC4)nc3C2)c2ccc(Cl)c(F)c2)n1 (centres unmarked) [Compound I-3, N-((4-chloro-3-fluorophenyl)(1-methyl-1H-pyrazol-3-yl)methyl)-2-(tetrahydro-2H-pyran-4-ylamino)-5,6-dihydropyrido[3,4-d]pyrimidine-7(8H)-carboxamide]	101 nM
1.4 nM	Cn1cc(C(NC(=O)N2CCc3cnc(NC4CCOCC4)nc3C2)c2ccc(Cl)c(F)c2)cn1 (centres unmarked) [Compound I-5, N-((4-chloro-3-fluorophenyl)(1-methyl-1H-pyrazol-4-yl)methyl)-2-(tetrahydro-2H-pyran-4-ylamino)-5,6-dihydropyrido[3,4-d]pyrimidine-7(8H)-carboxamide]	47.3 nM
1.5 nM	O=C(NC(c1cn[nH]c1)c1ccc(Cl)c(F)c1)N1CCc2cnc(NC3CCOCC3)nc2C1 (centres unmarked) [Compound I-7, N-((4-chloro-3-fluorophenyl)(1H-pyrazol-4-yl)methyl)-2-(tetrahydro-2H-pyran-4-ylamino)-5,6-dihydropyrido[3,4-d]pyrimidine-7(8H)-carboxamide]	43.5 nM
2.4 nM	O=C(NC(c1ccc(Cl)c(F)c1)c1nnco1)N1CCc2cnc(NC3CCOCC3)nc2C1 (centres unmarked) [Compound I-9, N-((4-chloro-3-fluorophenyl)(1,3,4-oxadiazol-2-yl)methyl)-2-(tetrahydro-2H-pyran-4-ylamino)-5,6-dihydropyrido[3,4-d]pyrimidine-7(8H)-carboxamide]	71.7 nM
4 nM	O=C(N[C@@H](c1ccc(Cl)c(F)c1)c1ccno1)N1CCc2cnc(NC3CCOCC3)nc2C1 [Compound I-12, (S)—N-((4-chloro-3-fluorophenyl)(isoxazol-5-yl)methyl)-2-(tetrahydro-2H-pyran-4-ylamino)-5,6-dihydropyrido[3,4-d]pyrimidine-7(8H)-carboxamide]	235 nM
3.2 nM	CNC[C@@H](CC(=O)N1CCc2cnc(NC(C)C)nc2C1)c1ccc(Cl)c(F)c1 [Compound I-17, (S)-3-(4-Chloro-3-fluoro-phenyl)-1-(2-isopropylamino-5,8-dihydro-6H-pyrido[3,4-d]pyrimidin-7-yl)-4-methylamino-butan-1-one]	281 nM
1.6 nM	C[C@@H](CO)Nc1ncc2c(n1)CN(C(=O)N[C@H](C)c1ccc(Cl)c(F)c1)CC2 [Compound I-21, N—((R)-1-(4-chloro-3-fluorophenyl)ethyl)-2-((S)-1-hydroxypropan-2-ylamino)-5,6-dihydropyrido[3,4-d]pyrimidine-7(8H)-carboxamide]	55.2 nM
3.2 nM	C[C@@H](CO)Nc1ncc2c(n1)CN(C(=O)N[C@@H](c1ccc(Cl)c(Cl)c1)C(F)(F)F)CC2 [Compound I-23, N—((S)-1-(3,4-dichlorophenyl)-2,2,2-trifluoroethyl)-2-((S)-1-hydroxypropan-2-ylamino)-5,6-dihydropyrido[3,4-d]pyrimidine-7(8H)-carboxamide]	493 nM
5.6 nM	CCOc1cc(Nc2ncc3c(n2)CN(C(=O)N[C@H](C)c2ccc(Cl)c(Cl)c2)CC3)ccn1 [Compound I-35, (R)—N-(1-(3,4-dichlorophenyl)ethyl)-2-(2-ethoxypyridin-4-ylamino)-5,6-dihydropyrido[3,4-d]pyrimidine-7(8H)-carboxamide]	91.3 nM
4.8 nM	CC[C@@H](NC(=O)N1CCc2cnc(N[C@H]3CC[C@H](O)C3)nc2C1)c1ccc(C(F)(F)F)c(F)c1 [Compound I-37, N—((R)-1-(3-fluoro-4-(trifluoromethyl)phenyl)propyl)-2-((1S,3S)-3-hydroxycyclopentylamino)-5,6-dihydropyrido[3,4-d]pyrimidine-7(8H)-carboxamide]	93 nM
409 nM	CC(C)Nc1ncc2c(n1)CN(C(=O)NC[C@H](c1ccc(C(F)(F)F)c(F)c1)N1CCCC1)CC2 [II-102, 2-Isopropylamino-5,8-dihydro-6H-pyrido[3,4-d]pyrimidine-7-carboxylic acid [(S)-2-(3-fluoro-4-trifluoromethyl-phenyl)-2-pyrrolidin-1-yl-ethyl]-amide]	–

The next lines start with the compound.

SMILES	IC50 [1]	IC50 [2]
C[C@@H](CO)Nc1ncc2c(n1)CN(C(=O)NC1CNCC1c1ccc(C(F)(F)F)cc1)CC2 (mixture of isomers) [II-171, 2-(2-Hydroxy-1-methyl-ethylamino)-5,8-dihydro-6H-pyrido[3,4-d]pyrimidine-7-carboxylic acid [4-(4-trifluoromethyl-phenyl)-pyrrolidin-3-yl]-amide]	0.7 nM	10000 nM
C[C@@H](NC(=O)N1Cc2nc(NC3CCOCC3)ncc2C(F)(F)C1)c1ccc(Cl)c(Cl)c1 [Compound I-50, (R)—N-(1-(3,4-dichlorophenyl)ethyl)-5,5-difluoro-2-(tetrahydro-2H-pyran-4-ylamino)-5,6-dihydropyrido[3,4-d]pyrimidine-7(8H)-carboxamide]	1.6 nM	28.3 nM
O=C(N1CCc2cnc(NC3CCOCC3)nc2C1)N1CCCC1c1nccs1 (centres unmarked) [Compound I-139, (2-(tetrahydro-2H-pyran-4-ylamino)-5,6-dihydropyrido[3,4-d]pyrimidin-7(8H)-yl)(2-(thiazol-2-yl)pyrrolidin-1-yl)methanone]	264 nM	–
O=C(N1CCc2cnc(NC3CCOCC3)nc2C1)N1CCNCC1c1ccccc1 (centres unmarked) [Compound I-141, (2-Phenylpiperazin-1-yl)(2-(tetrahydro-2H-pyran-4-ylamino)-5,6-dihydropyrido[3,4-d]pyrimidin-7(8H)-yl)methanone]	108 nM	–
O=C(N[C@H](CO)c1ccc(F)c(Cl)c1)N1CCc2cnc(N[C@H](CO)Cc3ccccc3)nc2C1 [II-17, 2-((S)-1-Hydroxymethyl-2-phenyl-ethylamino)-5,8-dihydro-6H-pyrido[3,4-d]pyrimidine-7-carboxylic acid [(S)-1-(3-chloro-4-fluoro-phenyl)-2-hydroxy-ethyl]-amide]	–	1100 nM
CC(C)OC[C@@H](NC(=O)N1CCc2cnc(N[C@H]3CC[C@H](O)C3)nc2C1)c1ccc(F)c(Cl)c1 [II-95, 2-((1S,3S)-3-Hydroxy-cyclopentylamino)-5,8-dihydro-6H-pyrido[3,4-d]pyrimidine-7-carboxylic acid [(S)-1-(3-chloro-4-fluoro-phenyl)-2-isopropoxy-ethyl]-amide]	–	551 nM
CC(C)Nc1ncc2c(n1)CN(C(=O)N[C@@H](c1ccc(C(F)(F)F)c(F)c1)c1cccc(=O)[nH]1)CC2 [II-99, 2-Isopropylamino-5,8-dihydro-6H-pyrido[3,4-d]pyrimidine-7-carboxylic acid [(S)-(3-fluoro-4-trifluoromethyl-phenyl)-(6-oxo-1,6-dihydro-pyridin-2-yl)-methyl]-amide]	–	5600 nM
CC1CC(Nc2ncc3c(n2)CN(C(=O)N[C@H](CO)c2ccc(Cl)c(F)c2)CC3)CCO1 (some centres unmarked) [II-366]	–	91 nM
